Measurements taken from patent US9260499B2, “Tumor antigen peptide and use thereof” (SAPPORO MEDICAL UNIVERSITY, priority 2008, dated 2016).
Where two headings read alike, the source gives them in different places.

What was measured:
HLA-A0201 = HLA-A0201 (Homo sapiens, UniProt P04439, D140Y/D185E/D98H/E176V/E277Q/G131W/G231S/I119V/I121R/I166T/I218V/L300P/L318F/N151K/N90K/P208A/P217A/Q86G/Q94H/R138H/R169H/T345S); experiment: HLA class I stabilization assay, binding affinity to HLA-A0201
[1] = tested on: lymphocytes from PBF-positive patients with osteosarcoma; experiment: Frequency analysis of antigenic peptide-specific CTLs (LD/MLPC, HLA-A0201/PBF tetramer staining); type: cell-based, human
Procedure: Lymphocytes from five PBF-positive patients with osteosarcoma were subjected to ,mixed lymphocyte peptide culture under conditions of limiting dilution (limiting dilution/mixed lymphocyte peptide culture; LD/MLPC) to induce peptide-specific CTLs (Cancer Sci., 2008, 99:368-375, which is incorporated herein by reference). Regarding two patients: Patient Nos. 1 ,and 2, 50 ml of peripheral blood was collected to isolate peripheral blood mononuclear cells (PBMCs). PBMCs were cultured for 60 minutes at room temperature in AIM-V medium (Invitrogen) containing 1% human serum and supplemented with 50 μg/ml of the peptide shown in SEQ ID NO:4. PBMCs which were pulsed with the peptide were plated at 2×10^5 cells/200 μl/well on a U-bottomed 96-well microtiter plate and cultured in AIM-V medium containing 10% human serum, 20 U/ml IL-2, and 10 ng/ml IL-7. Seven days after the culture was started, half of the cultured medium in each well was replaced with AIM-V medium containing IL-2, IL-7, and the peptide shown in SEQ ID NO:4 in order to perform the second stimulation. Cells on 14 to 21 days after the culture was started were used for frequency analysis with a tetramer.
Regarding three patients: Patient Nos. 3, 4, and 5, CD8-positive cells were isolated from PBMCs using magnetic anti-CD8 microbeads (Miltenyi Biotec). CD8-positive cells were pulsed for 60 minutes with the peptide shown in SEQ ID NO:4 and inactivated by radiation. 1.0×10^5 to 2.1×10^5 CD8-positive cells/well were cultured on a 48-well microtiter plate using AIM-V medium containing 10% human serum, 20 U/ml IL-2, and 10 ng/ml IL-7, together with 2×10^5 to 5×10^5 cells/well of irradiated, peptide-pulsed CD8-positive cells. After 7 days of the culture, the irradiated peptide-pulsed CD8-positive cells were added as described above, in order to perform the second stimulation. Cells on 13 to 23 days after the culture was started were used for frequency analysis with a tetramer. A PE-labeled HLA-A0201/PBF tetramer (MBL) which was prepared using the peptide shown in SEQ ID NO:4 was used for the analysis.
An FITC-labeled HLA-A0201/HIV tetramer (MBL) which was prepared using an HIV-derived peptide was used as negative control. Some of the lymphocytes which were cultured using the LD/MLPC method were cultured at room temperature for 15 minutes with the PE-labeled HLA-A0201/PBF tetramer or with the FITC-labeled HLA-A0201/HIV tetramer (10 nM each, in 25 μl of PBS), followed by staining. Further, a PE-Cy5-labeled anti-CD8 antibody ,eBioscience) was added and incubated for 15 minutes, followed by staining. Then, cells were washed twice with PBS, fixed in 0.5% formalin, and analyzed in a flow cytometer FACScan. Living cells which were stained both with the PE-Cy5-labeled anti-CD8 antibody and with the PE-labeled HLA-A0201/PBF tetramer were considered to be tetramer-positive and peptide-specific CTLs. The frequency of CTLs specific for a peptide shown in SEQ ID ,NO:4 was determined using the following equation: Frequency=the number of tetramer-positive wells/(the total number of the wells examined×the number of CD8-positive cells per well at the start of LD/MLPC). Of the five patients, three patients: Patient Nos. […], had frequencies of 5×10^−6, 2×10^−7, and 5×10^−7, respectively.

Substance | % MFI increase±standard deviation (SD) (HLA-A0201) [%] | Frequency of CTLs specific for the peptide ([1]; Patient No. 1) | Number of tetramer-positive wells ([1]; Patient No. 1, PBMCs, 18 wells tested, 200,000 initial cells per well, 25% CD8) | Frequency of CTLs specific for the peptide ([1]; Patient No. 2) | Number of tetramer-positive wells ([1]; Patient No. 2, PBMCs, 46 wells tested, 200,000 initial cells per well, 24% CD8) | Frequency of CTLs specific for the peptide ([1]; Patient No. 3) | Number of tetramer-positive wells ([1]; Patient No. 3, CD8-positive cells, 56 wells tested, 210,000 initial cells per well, 99% CD8) | Frequency of CTLs specific for the peptide ([1]; Patient No. 4) | Number of tetramer-positive wells ([1]; Patient No. 4, CD8-positive cells, 36 wells tested, 150,000 initial cells per well, 99% CD8) | Frequency of CTLs specific for the peptide ([1]; Patient No. 5) | Number of tetramer-positive wells ([1]; Patient No. 5, CD8-positive cells, 103 wells tested, 100,000 initial cells per well, 99% CD8) | % MFI increase±standard deviation (SD) (HLA-A0201; triplicate, FITC-labeled anti-HLA-A2 antibody BB7.2, flow cytometry) [%]
RGYVYQGL [SEQ ID NO:6, reference compound] | 5.6±8.2 |  |  |  |  |  |  |  |  |  |  | 
SEQ ID NO:4: fragment peptide of tumor antigen protein PBF (papillomavirus binding factor) binding to HLA-A2 antigen; synthesized by the Fmoc method (ALPSFQIPV) |  | <1 × 10^−6 | 0 | 5×10^−6 | 10 | 2×10^−7 | 2 | 5×10^−7 | 3 | <1 × 10^−7 | 0 | 74.5±6.6
